We go through three molecules from patent US8343985B2, “Methods for modulating Lyn kinase activity and treating related disorders” (Melior Pharmaceuticals I, Inc., priority 2005, dated 2013).

The subject of data set [1] is Zucker rats. Briefly: In vivo Zucker rat glucose study. The following applies: 30 mg/kg ip, glucose 1.5 g/kg, 30 and 270 minutes. The protocol: Zucker rats and corresponding lean rats were supplied by Harlan. Rats were fed a normal diet, ad libitum, and kept on a 12 hr light/dark cycle. Rats were housed 3 per cage. At 12 weeks of age, Zucker rats were administered Compound 102 at a concentration of 30 mg/kg (ip). Blood glucose levels were measured 30 minutes after administration. Forty-five minutes after drug administration, animals were administered a glucose solution (1.5 g/kg) by oral gavage. Blood glucose levels were measured every 30 minutes after gavage for 4.5 hrs. There were 3 groups with 3 animals per group: 1) 3 Zucker leans (no drug; no glucose treatment); 2) Zucker vehicle treated group (glucose challenged and 3) Zucker Compound 102 treatment (30 mg/kg); glucose challenged.

Data set [2] deals with Db/Db mice. Briefly: In vivo Db/Db mouse obesity study. The protocol:
(§1) Db/Db and Db/lean mice were obtained from Harlan at 6 weeks of age. Mice were housed 3 per cage and fed ad libitum normal rodent chow. Mice were kept on a 12 hr Light:dark cycle.
(§2) The study was initiated when mice reached an age of 8 weeks and their baseline blood glucose levels were greater than 200 mg/dl. Compound 102 was formulated in PBS: 2N HCl (99:1) at concentrations of 0.5, 1.5 and 5 mg/ml. Mice were dosed at volumes of 10 ml/kg to produce doses of 5, 15 and 50 mg/kg/dose. Mice were dosed twice per day at an 8 hr interval (8 am and 4 pm) during the light cycle.
Mice were administered vehicle or drug (i.e., Compound 102) (5, 15, and 50 mg/kg) twice per day (bid) for the 28 days. Mouse weight and food intake were monitored daily. Food intake is reported as food intake (grams) per mouse per 24 hr period.

Data set [3] concerns Male CD1/ICR mice fed Western Diet. Briefly: Western diet study: weight gain, food intake, fat pad weights. The class given is in vivo. The source says:
Male CD1/ICR mice were obtained from Harlan. The study was started when mice were 8 weeks of age. Prior to initiation of the study mice fasted for 24 hrs. Mice were fed “Western Diet” that was designed to approximate the “typical” human diet of North America and Europe (Research Diets; New Brunswick, N.J.; Western Diet composition). The Western Diet contained greater then 5 times more fat then normal chow. [table] Mice were weighed daily beginning from the start of the 24 hr fasting period. Food intake was monitored continuously. Mice were bled by retroorbital eyebleed on days 7, 14, 21 and 28 after the initiation of the study. On day of REB mice were dosed 1× with full dose 1 hr prior to bleed. Fat pads were dissected at the end of the study (day 31) weighed and frozen. The following fat pads were dissected: brown, inguinal, axial, mesenteric, renal and epidydimal. Data were averaged and analyzed by ANOVA followed by a post-hoc Tukey's test with a p value of less then 0.05 indicating a statistical difference.

For data set [4], the system named is Db/Db mice. Briefly: In vivo Db/Db mouse obesity study. The following applies: chronic administration to mice.
Data set [5] deals with leptin. Briefly: Leptin levels in Western diet treated animals (ELISA). The class given is in vivo. To be noted: Western diet mice. The protocol:
Blood from mice that were on western diet (Compound 102) were analyzed for leptin levels. Mice were bled by retroorbital eyebleed on days 7, 14, 21 and 28 after the initiation of the study. On day of REB mice were dosed once with full dose 1 hr prior to bleed. Leptin levels were determined by ELISA (R&D Systems) as per directions. Data are expressed as the average ±SEM. Data were averaged and analyzed by ANOVA followed by a post-hoc Tukey's test with a p value of less then 0.05 indicating a statistical difference.

For data set [6], the system named is mouse model of hyperglycemia. Put plainly: Oral glucose tolerance test in mice (mouse model of hyperglycemia). The following applies: for blood glucose levels / blood glucose load in mouse model of type II diabetes: mice administered high levels of glucose. The class given is in vivo. The text has this:
Type II diabetes is characterized by high blood glucose levels in the presence of normal amounts of insulin. Animal models of type II diabetes involve administering high levels of glucose and measuring blood glucose levels and the ability of the experimental animal to maintain glucose homeostasis over time. Several pharmacological structural classes can effectively regulate this hyperglycemic response including sulfonylureas, thiazoladinediones (PPARγ agonists; glitazones) or metformin (glucophage). These drug classes are also clinically approved for use in humans. In the current study, we established a mouse model of hyperglycemia by administering high levels of glucose to mice.
Glucose was formulated in water at a concentration of 150 mg/ml and dosed at a volume of 10 ml/kg to produce a dose of 1.5 g/kg. Glucose was measured using the Ascensia II Elite XL glucose monitor (Bayer). Measure glucose by taking a small (2 mm) section off the tip of the tail, bleed onto glucose test strip and measure. Data for each time point analyzed by ANOVA and post-hoc Tukey's test. A p value of less then 0.05 was used to indicate statistical significance.
In study 1, mice were dosed with Compound 102 and glucose as follows:
In study 2, mice were dosed with Compound 102 and glucose as follows.
Study 3 tested Compound 102 and was conducted as follows: […]

Data set [7] deals with Db/Db mice. Briefly: In vivo Db/Db mouse glucose study. As to the method:
as §1, §2
For the acute blood glucose measurements, blood glucose levels were measured after the animals received their first dose of Compound 102. Blood glucose levels were measured two hrs after this initial injection.

For data set [8], the target named is Lyn Kinase enzyme (Homo sapiens, UniProt P07948). Briefly: In vitro Lyn kinase enzyme activity. The class given is biochemical. To be noted: FIG. 12.
Setting [9] is: single dose of 2 or 10 mg/kg, FIG. 3.

Entries after “also recorded” stand apart in the source; their conditions may differ.

Sequence of Lyn Kinase enzyme (P07948 whole entry): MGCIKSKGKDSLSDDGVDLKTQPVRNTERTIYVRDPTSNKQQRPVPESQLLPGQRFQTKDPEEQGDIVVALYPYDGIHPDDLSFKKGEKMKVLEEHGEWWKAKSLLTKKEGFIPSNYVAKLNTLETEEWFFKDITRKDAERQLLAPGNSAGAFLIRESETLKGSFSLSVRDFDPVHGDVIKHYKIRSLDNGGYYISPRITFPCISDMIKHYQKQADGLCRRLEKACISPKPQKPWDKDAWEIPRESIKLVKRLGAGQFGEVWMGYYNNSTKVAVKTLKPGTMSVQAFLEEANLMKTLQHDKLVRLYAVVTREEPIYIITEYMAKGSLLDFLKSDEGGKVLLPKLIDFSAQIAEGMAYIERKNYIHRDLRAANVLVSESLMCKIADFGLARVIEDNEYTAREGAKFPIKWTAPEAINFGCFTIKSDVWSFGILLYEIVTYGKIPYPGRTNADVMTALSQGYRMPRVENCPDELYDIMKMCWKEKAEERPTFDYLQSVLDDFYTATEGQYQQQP

In the case of `Cc1cccc(Oc2cnc(=O)[nH]c2)c1` [Compound 102], the “blood glucose levels after oral glucose challenge” value in data set [1] was “reduced blood glucose levels at both time points; also recorded: reduction is blood glucose levels”. The “animal weight gain, dose dependence” value in data set [2] (Db/Db mice, IP twice/day, four weeks) is listed as “dose dependent effect”. For the same molecule, in data set [2] (Db/Db mice, bid, 28 days), the food intake result is “without affecting food intake” and the weight gain result was “significantly lowered; also recorded: reduction in weight gain”. Besides, in data set [2] (chronic administration to mice), the defecation entry was “defecated normally” and the “food intake compared to vehicle-treated animals” value is on record as “normal food intake”. Moreover, the “hyperactivity (as with amphetamine class of weight-loss drugs)” value in data set [2] (mouse, in vivo) is “did not display the hyperactivity”. Besides, in data set [3], the food intake result is reported as “not affected”. Also, the “brown, axial, inguinal, renal and epididymal fat pad increases” value in data set [3] (day 31) was “significantly reduced”. Besides, the weight gain entry in data set [3] (highest dose tested (30 mg/kg/day)) was “significantly reduced; also recorded: significant alteration in weight change”. The “weight-gain response of animals fed a high fat diet” value in data set [4] is listed as “significantly inhibited”. Also, the blood leptin levels entry in data set [5] was “reduced leptin levels to those fed a normal diet”. Also, the “blood glucose levels / blood glucose load in mouse model of type II diabetes” value in data set [6] was “effective in reducing blood glucose levels”. Further, in data set [6] (study 1, single administration, 30 mg/kg), the “time after drug administration at which significance was lost” value is 90 min. Also, the “normal blood glucose levels (pre-glucose loading)” value in data set [6] (study 1, single administration, 30 mg/kg, mice) is reported as “significantly decreased”. In addition, in data set [6] (study 1, single administration, 30 mg/kg, oral glucose 1.5 g/kg), the “blood glucose levels produced by oral glucose administration” value is given as “significantly attenuated”. Besides, the “effect on blood glucose levels” value in data set [6] (study 2, increased dosing (four times at 30 minute intervals)) was “more dramatic effect”. Moreover, the “acute blood glucose response upon study initiation and on weekly testing” value in data set [7] (15 mg/kg and 50 mg/kg dose groups) is reported as “acute dose response”. For the same molecule, the “blood glucose levels following acute administration” value in data set [7] (2 hrs after first dose) was “reduce blood glucose levels; also recorded: reduction in glucose levels”. For the same molecule, the “blood glucose levels, dose dependence” value in data set [7] (IP twice/day, four weeks) is on record as “dose dependent effect”. Moreover, the “in vitro activity of Lyn Kinase enzyme” value in data set [8] is “increased in vitro activity”.
Consider `O=c1ncc(Oc2cccc(Cl)c2)c[nH]1` [Compound 105], for which, in data set [6], the “blood glucose levels / blood glucose load in mouse model of type II diabetes” value is recorded as “effective in reducing blood glucose levels”. Moreover, in data set [6] (setting [9]), the “baseline blood glucose levels” value is given as “significantly depressed” and the “blood glucose levels at all time points after administration” value is “significantly (P<0.05) reduced”.
For the molecule `CN(C)C(=N)N=C(N)N` [metformin, reference compound], in data set [6], the “blood glucose levels / blood glucose load in mouse model of type II diabetes” value is “can effectively reduce the blood glucose load”.
